The numbers were not newly measured in EP2397122A2, “Formulations of neramexane dosage forms” (Merz Pharma GmbH & Co. KGaA, priority 2004, dated 2006), which cites them from elsewhere.

On to `CC12CC3CC(C)(C1)CC(N)(C3)C2` [memantine, 1-amino-3,5-dimethyladamantane], for which the “elimination half-life (T½)” value (man) was 60 to 80 h. Besides, the absolute bioavailability result (oral administration in man) was “approximately 100%”.
